Measured values from PubChem BioAssay AID1984 (Sanford-Burnham Center for Chemical Genomics, 2009).
The source made the active and inactive calls.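 Rule for the calls: active = EGFP signal decrease of at least 30% at 10 µM or well 3 SD below plate mean, unless failing retest; inactive = the rest, including hits failing retest or dose response.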

Target: p/CIP-EGFP fusion (nuclear receptor coactivator 3, mouse) (UniProt Q05BA5)
Test: p/CIP-EGFP fusion destabilizers, primary screen, fluorescence, F442A cells (AID 1984);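 note: dose response run in MEF cells carrying p/CIP-EGFP rather than F442A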
Settings: 16 h

Chain of p/CIP-EGFP fusion (nuclear receptor coactivator 3, mouse) (Q05BA5 1-1403): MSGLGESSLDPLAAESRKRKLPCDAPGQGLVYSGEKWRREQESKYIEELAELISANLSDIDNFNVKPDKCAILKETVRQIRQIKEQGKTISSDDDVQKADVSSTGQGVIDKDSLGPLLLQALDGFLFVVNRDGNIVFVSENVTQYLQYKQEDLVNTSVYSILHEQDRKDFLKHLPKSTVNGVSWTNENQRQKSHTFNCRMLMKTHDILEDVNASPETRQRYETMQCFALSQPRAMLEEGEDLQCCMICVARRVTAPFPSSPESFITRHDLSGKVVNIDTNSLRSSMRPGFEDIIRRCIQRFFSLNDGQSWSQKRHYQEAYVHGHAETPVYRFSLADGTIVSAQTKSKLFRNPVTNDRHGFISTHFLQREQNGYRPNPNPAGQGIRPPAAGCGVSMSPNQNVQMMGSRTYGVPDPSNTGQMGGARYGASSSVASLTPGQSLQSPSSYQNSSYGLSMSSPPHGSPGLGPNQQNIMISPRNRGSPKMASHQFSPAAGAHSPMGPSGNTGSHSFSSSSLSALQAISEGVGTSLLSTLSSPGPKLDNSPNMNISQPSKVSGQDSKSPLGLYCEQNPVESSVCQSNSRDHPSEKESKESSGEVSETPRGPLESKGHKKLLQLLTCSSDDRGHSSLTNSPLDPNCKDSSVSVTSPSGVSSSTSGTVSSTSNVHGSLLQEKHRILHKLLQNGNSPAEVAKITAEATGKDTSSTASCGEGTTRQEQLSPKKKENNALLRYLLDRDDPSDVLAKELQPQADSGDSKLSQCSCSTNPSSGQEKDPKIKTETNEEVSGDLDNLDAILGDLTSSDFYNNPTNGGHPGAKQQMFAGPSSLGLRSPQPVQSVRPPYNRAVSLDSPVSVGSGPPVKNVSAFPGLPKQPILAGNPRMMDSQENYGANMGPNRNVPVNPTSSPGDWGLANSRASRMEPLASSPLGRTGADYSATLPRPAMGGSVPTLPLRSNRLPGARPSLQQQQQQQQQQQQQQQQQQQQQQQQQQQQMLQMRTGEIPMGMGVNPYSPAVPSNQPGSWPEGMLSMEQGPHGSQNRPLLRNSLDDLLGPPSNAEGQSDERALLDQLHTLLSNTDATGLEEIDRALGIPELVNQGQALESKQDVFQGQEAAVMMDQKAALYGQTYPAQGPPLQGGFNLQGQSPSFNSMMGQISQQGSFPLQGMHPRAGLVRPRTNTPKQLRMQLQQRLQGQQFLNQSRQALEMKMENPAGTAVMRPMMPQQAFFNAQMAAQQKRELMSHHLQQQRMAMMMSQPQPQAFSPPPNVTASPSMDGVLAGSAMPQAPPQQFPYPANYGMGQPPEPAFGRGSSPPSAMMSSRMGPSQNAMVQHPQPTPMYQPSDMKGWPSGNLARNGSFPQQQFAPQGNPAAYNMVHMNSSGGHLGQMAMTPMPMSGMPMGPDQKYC

SMILES	IC50
Nc1ccc2c(c1)C(=O)C(=O)c1ccccc1-2	14.6 µM
CCOC(=O)N=Nc1c2ccccc2c2nc3no[nH]c3nc12	18.8 µM
CC(C)(C)c1cc[n+](C2=C([O-])c3ccccc3C(=O)/C2=N\S(=O)(=O)c2cccs2)cc1	27 µM
COc1ccc(NC(=O)/C(Cl)=C(/Cl)S(=O)Cc2ccc(Cl)cc2)cn1 (centres undefined)	inactive
Cc1oc2c(c1C(=O)NCc1cccnc1)C(=O)c1ccccc1C2=O	4.3 µM
O=C1C(Nc2ccc(O)cc2)=C/C(=N/S(=O)(=O)c2cccs2)c2ccccc21	2.69 µM
Cc1ccccc1NC1=C/C(=N\S(=O)(=O)c2cccs2)c2ccccc2C1=O	16.4 µM
CCOC(=O)c1c(C)[nH]c2c1-c1ccccc1C(=O)C2=O	3.43 µM
O=C1C(Nc2ccccc2)=C/C(=N/S(=O)(=O)c2cccs2)c2ccccc21	3.77 µM
O=C1C(Cl)=C(NCCN2CCCCC2)C(=O)c2ccccc21	14.8 µM
CCCc1nc2c(=O)n(C)c(=O)nc-2n(C)n1	5 µM
Cc1ccc(NC2=C/C(=N\S(=O)(=O)c3cccs3)c3ccccc3C2=O)c(C)c1	19.4 µM
COc1ccc(CS(=O)/C(Cl)=C(/Cl)C(=O)Nc2ccc(OC)nc2)cc1 (centres undefined)	16.6 µM
CC1CCN(S(=O)(=O)c2ccc3c(c2)C(=NO)c2cc(S(=O)(=O)N4CCC(C)CC4)ccc2-3)CC1	2.3 µM
